According to patent US7276519B2, “Thieno[3,2-b]pyridine-6-carbonitriles and thieno[2,3-b]pyridine-5-carbonitriles as protein kinase inhibitors” (Wyeth, priority 2002, dated 2007):
Values joined by “and” are separate entries in the source; they are usually repeats but may differ in a detail not shown here. Equal values may be shown once. Read-outs that look alike come from different tables or passages of the source.

Tests used:
[1] = biological target: T1, Rat2 fibroblasts stably transformed with v-Src/Hu Lck fusion gene (Homo sapiens, UniProt P06239, cells depend on it, form not given); assay: Anchorage independent Lck-transformed fibroblast proliferation assay; assay type: cell-based, rat; settings: Table 3; read-out: Lck Cells IC50
T1 construct: Candidates are e.g. Schmidt-Ruppin A (P00524) or Prague C (P00526); The human Lck catalytic domain stands in place of the v-Src catalytic domain
T1 sequence (P06239 whole entry, change not shown, the tested form may be a part): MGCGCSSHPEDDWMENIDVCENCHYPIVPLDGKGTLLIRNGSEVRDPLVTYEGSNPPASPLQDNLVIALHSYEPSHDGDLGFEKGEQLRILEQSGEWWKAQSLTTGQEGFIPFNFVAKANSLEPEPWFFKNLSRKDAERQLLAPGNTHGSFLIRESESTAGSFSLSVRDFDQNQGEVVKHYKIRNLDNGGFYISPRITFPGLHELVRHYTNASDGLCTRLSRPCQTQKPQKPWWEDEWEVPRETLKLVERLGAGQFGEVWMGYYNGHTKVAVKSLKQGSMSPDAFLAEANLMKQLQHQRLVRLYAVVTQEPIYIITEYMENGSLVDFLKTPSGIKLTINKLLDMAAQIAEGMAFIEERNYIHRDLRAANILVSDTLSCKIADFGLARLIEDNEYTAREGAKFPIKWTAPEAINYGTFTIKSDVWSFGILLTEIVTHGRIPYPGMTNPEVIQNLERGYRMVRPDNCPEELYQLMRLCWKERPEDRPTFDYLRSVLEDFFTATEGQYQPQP
How it was run: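 Rat2 fibroblasts expressing a CMV-driven v-Src/human Lck catalytic-domain fusion grown in suspension on ultra-low attachment plates, 10,000 cells/well. Compound added Day 2 as two-fold dilutions from 10 to 0.009 micromolar; MTS added Day 5, absorbance read at 490 nm. IC50 derived from blank-corrected % of no-compound control.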

[2] = biological target: T2, Recombinant human Src enzyme (Homo sapiens, UniProt P12931); assay: Src kinase assay (LANCE FRET); assay type: biochemical; settings: Table 3; 100 μM ATP, biotinylated Cdk1 peptide substrate
T2 construct: purchased PanVera P3044
T2 sequence (P12931 whole entry): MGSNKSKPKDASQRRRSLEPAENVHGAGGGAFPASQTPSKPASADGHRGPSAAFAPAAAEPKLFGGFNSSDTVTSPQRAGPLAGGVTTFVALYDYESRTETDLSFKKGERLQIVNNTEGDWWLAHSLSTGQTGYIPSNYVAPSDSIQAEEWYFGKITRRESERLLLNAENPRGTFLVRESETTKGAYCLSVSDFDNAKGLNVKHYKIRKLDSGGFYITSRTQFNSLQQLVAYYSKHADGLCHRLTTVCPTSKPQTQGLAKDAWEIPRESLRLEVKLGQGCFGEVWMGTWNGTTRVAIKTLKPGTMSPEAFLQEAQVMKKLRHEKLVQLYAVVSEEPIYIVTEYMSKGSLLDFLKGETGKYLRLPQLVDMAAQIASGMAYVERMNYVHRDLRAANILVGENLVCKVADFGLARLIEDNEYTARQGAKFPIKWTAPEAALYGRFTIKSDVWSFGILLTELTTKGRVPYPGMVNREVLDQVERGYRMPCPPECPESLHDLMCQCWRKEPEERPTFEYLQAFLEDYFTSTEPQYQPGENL
Method: Recombinant human Src enzyme was obtained from PanVera (P3044). […] Homogeneous fluorescence resonance energy transfer kinase assays were performed using the europium/APC detection format (LANCE, Perkin Elmer). Src enzyme (10 ng) was mixed with biotinylated peptide (final concentration 2 μM), 50 mM Hepes (pH 7.5), 10 mM MgCl2, 20 μg/ml BSA, 0.001% Brij-35 (sigma), 100 μM ATP, 1% DMSO. The kinase reaction was incubated for 70 min at 37° C. The reaction was stopped with EDTA at a final concentration of 30 mM EDTA/25 mM Hepes (pH 7.5)/10 μg/ml BSA. The mixture was combined with Eu-labeled anti-phosphotyrosine antibody PT66 (Perkin Elmer, AD0068) and Streptavidin Surelight-APC (Perkin Elmer, CR130-100) in 50 mM Hepes (pH 7.5)/20 μg/ml BSA, and incubated for 30 min according to manufacturer's specifications. […] Multiple entries for a given compound indicate that it was tested multiple times.

[3] = system: Rat2 fibroblasts stably transformed with v-Src/Hu c-Src fusion gene; assay: Anchorage independent Src-transformed fibroblast proliferation assay; assay type: cell-based, rat
Method: Anchorage Independent Src-Transformed Fibroblast Proliferation Assay Rat2 fibroblasts stably transformed with a plasmid containing a CMV promotor controlled v-Src/Hu c-Src fusion gene in which the catalytic domain of human c-Src was inserted in place of the v-Src catalytic domain in the v-Src gene are used for the measurement of src dependent suspension growth. […] Multiple entries for a given compound indicate that it was tested multiple times.

[4] = Rattus norvegicus, Rat2, read-out: Src Cells IC50 μM or % inhib at 10 μM (IC50 values), Table 3
[5] = read-out: Src Cells IC50 μM or % inhib at 10 μM (IC50 values), Table 3
[6] = Rattus norvegicus, Rat2, Table 3, read-out: Src Cells IC50 μM or % inhib at 10 μM (IC50 values)
[7] = Table 3, read-out: Src Cells IC50 μM or % inhib at 10 μM (IC50 values)

GI50 [1]	melting point	IC50 [2]	SMILES	inhibition at 10 µM ([3]; Rattus norvegicus, Rat2, Table 3, at 10 μM, read-out: Src Cells IC50 μM or % inhib at 10 μM (% values)) [%]	Src Cells IC50 μM or % inhib at 10 μM (% values) ([3]; Table 3, at 10 μM) [%]	IC50 [3, 4] [µM]	IC50 [3, 5]	IC50 [3, 6] [µM]	IC50 [3, 7] [µM]
> 10000 nM	184 to 185 °C	> 10000 nM	COc1cc(Nc2c(C#N)cnc3c(-c4ccc(CN5CCOCC5)cc4)csc23)c(Cl)cc1Cl [Example 143, 7-[(2,4-dichloro-5-methoxyphenyl)amino]-3-[4-(morpholin-4-ylmethyl)phenyl]thieno[3,2-b]pyridine-6-carbonitrile]	61	45	–	–	–	–
3180 nM and 4240 nM	201 to 202 °C	4350 nM and 5040 nM	COc1cc(Nc2c(C#N)cnc3c(-c4ccc(CN(C)C)cc4)csc23)c(Cl)cc1Cl [Example 141, 7-[(2,4-Dichloro-5-methoxyphenyl)amino]-3-{4-[(dimethylamino)methyl]phenyl}thieno[3,2-b]pyridine-6-carbonitrile]	–	–	–	–	4.52	4.11
3540 nM and 4350 nM	197 to 198 °C	> 10000 nM	COc1cc(Nc2c(C#N)cnc3c(-c4ccc(CN5CCN(C)CC5)cc4)csc23)c(Cl)cc1Cl [Example 142, 7-[(2,4-dichloro-5-methoxyphenyl)amino]-3-{4-[(4-methylpiperazin-1-yl)methyl]phenyl}thieno[3,2-b]pyridine-6-carbonitrile]	–	–	–	–	3.25	1.99
63 nM and 65 nM	141 to 143 °C	9 nM and 11 nM	COc1cc(Nc2c(C#N)cnc3cc(-c4ccc(CNCCCO)cc4)sc23)c(Cl)cc1Cl [Example 107, 7-[(2,4-dichloro-5-methoxyphenyl)amino]-2-(4-{[(3-hydroxypropyl)amino]methyl}phenyl)thieno[3,2-b]pyridine-6-carbonitrile]	–	–	–	–	0.531	0.543
252 nM and 235 nM	167 to 169 °C	10 nM and 12 nM	CCCCNCc1ccc(-c2cc3ncc(C#N)c(Nc4cc(OC)c(Cl)cc4Cl)c3s2)cc1 [Example 104, 2-{4-[(butylamino)methyl]phenyl}-7-[(2,4-dichloro-5-methoxyphenyl)amino]thieno[3,2-b]pyridine-6-carbonitrile]	–	–	–	–	0.837	0.939
320 nM and 270 nM	204 to 206 °C	26.3 nM and 34.7 nM	COc1cc(Nc2c(C#N)cnc3cc(-c4cccc(CN(C)C)c4)sc23)c(Cl)cc1Cl [Example 75, 7-[(2,4-dichloro-5-methoxyphenyl)amino]-2-{3-[(dimethylamino)methyl]phenyl}thieno[3,2-b]pyridine-6-carbonitrile]	–	–	–	–	1.5	0.97
341 nM and 276 nM	154 to 156 °C	15 nM and 16 nM	COc1cc(Nc2c(C#N)cnc3cc(-c4ccc(CNCCSC)cc4)sc23)c(Cl)cc1Cl [Example 93, 7-[(2,4-dichloro-5-methoxyphenyl)amino]-2-[4-({[2-(methylthio)ethyl]amino}methyl)phenyl]thieno[3,2-b]pyridine-6-carbonitrile]	–	–	–	–	1.22	0.638
222 nM and 235 nM	242 to 245 °C	8.5 nM and 7 nM	COc1cc(Nc2c(C#N)cnc3cc(-c4ccc(CN5CC[S+]([O-])CC5)cc4)sc23)c(Cl)cc1Cl [Example 105, 7-[(2,4-dichloro-5-methoxyphenyl)amino]-2-{4-[(1-oxidothiomorpholin-4-yl)methyl]phenyl}thieno[3,2-b]pyridine-6-carbonitrile]	–	–	–	–	0.473	0.55

SMILES	GI50 [1]	melting point	IC50 [2]	inhibition at 10 µM ([3]; Rattus norvegicus, Rat2, Table 3, at 10 μM, read-out: Src Cells IC50 μM or % inhib at 10 μM (% values)) [%]	Src Cells IC50 μM or % inhib at 10 μM (% values) ([3]; Table 3, at 10 μM) [%]	IC50 [3, 4] [µM]	IC50 [3, 5]	IC50 [3, 6] [µM]	IC50 [3, 7] [µM]
COc1cc(Nc2c(C#N)cnc3cc(-c4csc(CN(C)C)c4)sc23)c(Cl)cc1Cl [Example 80, 7-[(2,4-dichloro-5-methoxyphenyl)amino]-2-{5-[(dimethylamino)methyl]thien-3-yl}thieno[3,2-b]pyridine-6-carbonitrile]	74 nM and 73 nM	184 to 186 °C	13 nM and 14 nM	–	–	0.79	0.58 µM	–	–
COc1cc(Nc2c(C#N)cnc3cc(-c4ccc(CN5CCSCC5)cc4)sc23)c(Cl)cc1Cl [Example 94, 7-[(2,4-dichloro-5-methoxyphenyl)amino]-2-[4-(thiomorpholin-4-ylmethyl)phenyl]thieno[3,2-b]pyridine-6-carbonitrile]	932 nM and 907 nM and 1170 nM	198 to 201 °C	58 nM and 46 nM	–	–	5.52	2.92 µM and 3.17 µM	–	–
COc1cc(Nc2c(C#N)cnc3cc(-c4ccsc4CN4CCN(C)CC4)sc23)c(Cl)cc1Cl [Example 84, 7-[(2,4-dichloro-5-methoxyphenyl)amino]-2-{2-[(4-methylpiperazin-1-yl)methyl]thien-3-yl}thieno[3,2-b]pyridine-6-carbonitrile]	3400 nM	218 to 219 °C	320 nM and 580 nM and 347 nM	–	–	3.3	–	–	–
COc1cc(Nc2c(C#N)cnc3cc(-c4ccc(C(=O)N5CCN(C)CC5)cc4)sc23)c(Cl)cc1Cl [Example 117, 7-[(2,4-dichloro-5-methoxyphenyl)amino]-2-{4-[(4-methylpiperazin-1-yl)carbonyl]phenyl}thieno[3,2-b]pyridine-6-carbonitrile]	129 nM and 171 nM	240 to 243 °C (dec.)	15 nM and 11 nM	–	–	0.388	0.274 µM	–	–
CCOc1cc(Nc2c(C#N)cnc3cc(-c4ccc(CN5CCN(C)CC5)cc4)sc23)c(Cl)cc1Cl [Example 123, 7-[(2,4-dichloro-5-ethoxyphenyl)amino]-2-{4-[(4-methylpiperazin-1-yl)methyl]phenyl}thieno[3,2-b]pyridine-6-carbonitrile]	3230 nM and 4690 nM	227 to 229 °C	943 nM and 1020 nM	–	–	> 10	–	–	–
